In patent US9550742B2, “11-OXO-10,11-dihydrodibenzo[B,F][1,4]thiazepine S-oxide derivatives and their use as dopamine D2 receptor antagonists” (The United States of America, as Represented by the …, priority 2013, dated 2017):

Assays:
5-HT7 = 5-HT7 (Homo sapiens, UniProt P34969); assay: Affinity profile panel: 5-HT7; settings: inhibition of binding
Sigma 2 = Sigma 2 (Homo sapiens, UniProt Q5BJF2); assay: Affinity profile panel: Sigma 2; settings: inhibition of binding
Sigma 1 = Sigma 1 (Homo sapiens, UniProt Q99720); assay: Affinity profile panel: Sigma 1; settings: inhibition of binding
M1 = M1 (Homo sapiens, UniProt P11229); assay: Affinity profile panel: M1; settings: inhibition of binding
5-HT5A = 5-HT5A (Homo sapiens, UniProt P47898); assay: Affinity profile panel: 5-HT5A; settings: inhibition of binding
BZP Rat Brain Site = assay: Affinity profile panel: BZP Rat Brain Site; settings: inhibition of binding
D3 receptor = biological target: T1, D3 receptor (Rattus norvegicus, UniProt P19020); assay: Pramipexole-induced yawning; format: in vivo; settings: rats, 3.2 and 10 mg/kg
T1 construct: from tissue; host or cells: live rats (whole animal)
Description: Pramipexole, an agonist of the D3 receptor, produces yawning when administered subcutaneously. This response is known to be mediated by the D3 receptor and not the D2 receptor (Collins, Id.).
(§1) The sumanirole-induced hypothermia and pramipexole-induced yawning experiments show ML321 can act selectively to block the D2 receptor without blocking the D3 receptor when administered to living animals. Thus, the D2 selectivity identified using cellular assays can also be seen in living animals.

5-HT1A = 5-HT1A (Homo sapiens, UniProt P08908); assay: Affinity profile, panel of 46 GPCRs and related proteins: 5-HT1A; settings: inhibition of binding
M3 = M3 (Homo sapiens, UniProt P20309); assay: Affinity profile panel: M3; settings: inhibition of binding
Alpha2B = Alpha2B (Homo sapiens, UniProt P18089); assay: Affinity profile panel: Alpha2B; settings: inhibition of binding
Alpha1D = Alpha1D (Homo sapiens, UniProt P25100); assay: Affinity profile panel: Alpha1D; settings: inhibition of binding
H3 = H3 (Homo sapiens, UniProt Q9Y5N1); assay: Affinity profile panel: H3; settings: inhibition of binding
5-HT1E = 5-HT1E (Homo sapiens, UniProt P28566); assay: Affinity profile panel: 5-HT1E; settings: inhibition of binding
Alpha2C = Alpha2C (Homo sapiens, UniProt P18825); assay: Affinity profile panel: Alpha2C; settings: inhibition of binding
DAT = DAT (Homo sapiens, UniProt Q01959); assay: Affinity profile panel: DAT; settings: inhibition of binding
Description: Antipsychotic drugs (depending on the specific drug) typically interact with a range of serotonergic, adrenergic, histaminergic, and muscarinic receptors.

[1] = biological target: D3 human dopamine receptors (Homo sapiens, UniProt P35462); assay: D3 binding assay ([^3H]methylspiperone, HEK293 membranes)
Procedure: Cells were cultured in Dulbecco's modified Eagle's Medium containing 10% FBS, 1,000 units/mL Penicillin, 1,000 mg/mL Streptomycin, 100 mM Sodium Pyruvate, 1 μg/mL Gentamicin, and […] G418. All cells were maintained at 37° C. in 5% CO2 and 90% humidity. For radioligand binding assays, cells were removed mechanically using calcium and magnesium-free Earle's Balanced Salt Solution (EBSS(−)). Intact cells were collected by centrifugation and then lysed with 5 mM Tris-HCl and 5 mM MgCl2 at pH 7.4 in a glass homogenizer. […] Membrane preparations were incubated for 90 min at room temperature with various concentrations of radioligand in a reaction volume of 250 μL EBSS containing 200 mM sodium metabisulfite. […] Bound ligand was separated from unbound by filtration through GF/C filters using a PerkinElmer cell harvester with ice cold EBSS (4 washes) and quantified on a Top-count (PerkinElmer) after addition of scintillation solution. […] In order to determine the affinity of a given compound for a receptor type, competition-binding assays were performed. […] Reactions were incubated, terminated, and quantified as indicated above.

D2 GPCR receptor (DAR) = biological target: T2, D2 GPCR receptor (DAR) (Homo sapiens, UniProt P14416); assay: D2 beta-arrestin functional assay (PathHunter, CHO); format: cell-based
T2 construct: host or cells: CHO PathHunter β-arrestin cells
Description: For a secondary-screen and selectivity assays, DAR PathHunter® β-arrestin GPCR cell lines from DiscoveRx (Fremont, Calif.). In this) were used. In the D2 Receptor PathHunter® β-arrestin GPCR cell line, the D2 GPCR receptor (DAR) is overexpressed and fused with a small 42-amino acid fragment of β-galactosidase called ProLink™ on a CHO cellular background expressing a fusion protein of β-arrestin and a larger N-terminal deletion mutant of β-galactosidase (“enzyme acceptor”). When DAR is activated by dopamine, it stimulates binding of β-arrestin to the ProLink-tagged DAR and the two complementary parts of β-galactosidase form a functional enzyme. When substrate (PathHunter® Detection reagent) is added, β-galactosidase hydrolyzes it and generates a chemiluminescent signal.
D2 Receptor PathHunter® β-arrestin cells were seeded at 2,100 cells/well in 3 μL/well media (DiscoveRx Plating Reagent 2) with MultiDrop Combi dispenser (Thermo Scientific, Logan, Utah) onto white tissue culture treated 1,536-well Aurora plates (Brooks Automation, Chelmsford, Mass.) and allowed to attach overnight at 37° C., 5% CO2. Next, 23 nL/well of compound solutions in DMSO were added with a pintool transfer (Kalypsis, San Diego, Calif.). The cells were stimulated by compounds for 90 min at 37° C., 5% CO2, after which 1.5 μL/well of DiscoveRx detection reagent was added with BioRAPTR FRD dispenser. The detection reagent was prepared by mixing of Galacton Star Substrate, Emerald II solution and PathHunter buffer (supplied by the assay kit) together at a 1:5:19 proportion just prior to dispensing. The plates were incubated at ambient temperature for 1 hr, and the luminescent signal was read on a ViewLux plate reader (PerkinElmer, Waltham, Mass.).

Beta1 = Beta1 (Homo sapiens, UniProt P08588); assay: Affinity profile panel: Beta1; settings: inhibition of binding
D2 receptor = biological target: T3, D2 receptor (Rattus norvegicus, UniProt P61169); assay: Sumanirole-induced hypothermia; format: in vivo; settings: rats, subcutaneously
T3 construct: from tissue; host or cells: live rats (whole animal)
Description: These experiments test the ability of a compound of Formula I, ML321, to affect physiological or behavioral responses in rats that are mediated by D2 or D3 receptors. Sumanirole, an agonist of the D2 receptor, produces hypothermia in rats when administered subcutaneously. This response is known to be mediated by the D2 receptor and not the D3 receptor (Collins et al., Psychopharmacology (Berl). 2007, 193(2):159-70).
as §1

D4 = D4 (Homo sapiens, UniProt P21917); assay: D4 binding assay (FIG. 2B)
Sequence of D4 (P21917 whole entry): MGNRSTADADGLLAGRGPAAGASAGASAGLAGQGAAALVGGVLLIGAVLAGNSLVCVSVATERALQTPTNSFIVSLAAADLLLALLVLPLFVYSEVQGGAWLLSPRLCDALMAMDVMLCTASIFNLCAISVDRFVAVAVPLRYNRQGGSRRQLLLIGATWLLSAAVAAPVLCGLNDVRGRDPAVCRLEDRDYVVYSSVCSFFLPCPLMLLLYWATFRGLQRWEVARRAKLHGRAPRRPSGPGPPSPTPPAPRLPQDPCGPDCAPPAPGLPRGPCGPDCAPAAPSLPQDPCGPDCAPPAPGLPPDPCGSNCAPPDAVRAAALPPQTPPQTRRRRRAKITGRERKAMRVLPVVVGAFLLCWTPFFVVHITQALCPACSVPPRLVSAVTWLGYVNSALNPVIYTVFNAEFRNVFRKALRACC

T3 sequence (P61169 whole entry): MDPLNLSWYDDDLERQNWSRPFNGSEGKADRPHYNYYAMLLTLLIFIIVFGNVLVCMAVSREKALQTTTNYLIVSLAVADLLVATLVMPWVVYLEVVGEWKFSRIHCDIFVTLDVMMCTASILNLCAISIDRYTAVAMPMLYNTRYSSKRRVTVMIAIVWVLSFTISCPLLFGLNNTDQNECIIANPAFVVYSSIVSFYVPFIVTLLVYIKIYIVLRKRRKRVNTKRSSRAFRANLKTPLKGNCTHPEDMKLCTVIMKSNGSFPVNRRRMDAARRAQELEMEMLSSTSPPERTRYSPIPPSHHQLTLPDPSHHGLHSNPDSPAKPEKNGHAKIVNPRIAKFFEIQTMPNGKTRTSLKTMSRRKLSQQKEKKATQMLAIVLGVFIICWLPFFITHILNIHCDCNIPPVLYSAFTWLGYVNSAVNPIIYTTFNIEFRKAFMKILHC
T2 sequence (P14416 whole entry): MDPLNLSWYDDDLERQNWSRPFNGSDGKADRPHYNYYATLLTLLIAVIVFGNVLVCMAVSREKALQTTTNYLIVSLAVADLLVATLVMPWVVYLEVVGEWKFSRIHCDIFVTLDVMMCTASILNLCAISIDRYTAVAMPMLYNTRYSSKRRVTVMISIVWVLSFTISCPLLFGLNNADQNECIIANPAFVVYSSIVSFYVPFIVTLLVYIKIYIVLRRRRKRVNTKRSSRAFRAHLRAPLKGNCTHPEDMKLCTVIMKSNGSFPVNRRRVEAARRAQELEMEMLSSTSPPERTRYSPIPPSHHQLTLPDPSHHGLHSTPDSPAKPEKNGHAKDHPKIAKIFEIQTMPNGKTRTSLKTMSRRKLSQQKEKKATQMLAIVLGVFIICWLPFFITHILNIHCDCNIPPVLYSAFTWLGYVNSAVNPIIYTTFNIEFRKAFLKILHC
Sequence of M3 (P20309 whole entry): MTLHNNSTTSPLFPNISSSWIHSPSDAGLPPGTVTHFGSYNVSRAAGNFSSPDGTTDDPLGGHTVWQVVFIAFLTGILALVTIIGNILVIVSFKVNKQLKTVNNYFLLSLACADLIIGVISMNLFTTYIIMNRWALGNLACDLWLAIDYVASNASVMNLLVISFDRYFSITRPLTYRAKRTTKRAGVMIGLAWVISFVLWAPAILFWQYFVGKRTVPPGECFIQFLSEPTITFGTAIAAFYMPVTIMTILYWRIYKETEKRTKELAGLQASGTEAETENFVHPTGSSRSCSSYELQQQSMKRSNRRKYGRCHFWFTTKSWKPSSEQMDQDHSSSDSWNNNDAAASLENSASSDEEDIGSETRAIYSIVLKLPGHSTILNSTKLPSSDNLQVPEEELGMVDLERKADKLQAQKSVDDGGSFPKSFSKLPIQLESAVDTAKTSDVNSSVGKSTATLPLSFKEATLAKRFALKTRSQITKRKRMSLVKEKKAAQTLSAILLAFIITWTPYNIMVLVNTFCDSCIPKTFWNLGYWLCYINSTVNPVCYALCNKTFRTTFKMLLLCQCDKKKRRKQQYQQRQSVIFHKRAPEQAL
Sequence of H3 (Q9Y5N1 whole entry): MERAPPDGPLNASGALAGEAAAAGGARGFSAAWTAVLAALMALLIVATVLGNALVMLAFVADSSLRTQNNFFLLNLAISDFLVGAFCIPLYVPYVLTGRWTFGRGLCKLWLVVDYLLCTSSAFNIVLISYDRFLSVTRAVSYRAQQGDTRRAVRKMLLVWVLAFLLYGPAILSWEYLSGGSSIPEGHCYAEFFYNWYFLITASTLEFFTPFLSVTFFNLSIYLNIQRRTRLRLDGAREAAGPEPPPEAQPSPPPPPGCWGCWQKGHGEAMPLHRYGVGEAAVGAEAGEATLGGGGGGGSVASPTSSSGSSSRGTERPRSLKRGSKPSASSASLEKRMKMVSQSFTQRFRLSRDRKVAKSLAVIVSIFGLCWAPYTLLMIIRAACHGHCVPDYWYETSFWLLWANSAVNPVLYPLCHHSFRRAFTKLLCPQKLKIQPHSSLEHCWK
Sequence of D3 human dopamine receptors (P35462 whole entry): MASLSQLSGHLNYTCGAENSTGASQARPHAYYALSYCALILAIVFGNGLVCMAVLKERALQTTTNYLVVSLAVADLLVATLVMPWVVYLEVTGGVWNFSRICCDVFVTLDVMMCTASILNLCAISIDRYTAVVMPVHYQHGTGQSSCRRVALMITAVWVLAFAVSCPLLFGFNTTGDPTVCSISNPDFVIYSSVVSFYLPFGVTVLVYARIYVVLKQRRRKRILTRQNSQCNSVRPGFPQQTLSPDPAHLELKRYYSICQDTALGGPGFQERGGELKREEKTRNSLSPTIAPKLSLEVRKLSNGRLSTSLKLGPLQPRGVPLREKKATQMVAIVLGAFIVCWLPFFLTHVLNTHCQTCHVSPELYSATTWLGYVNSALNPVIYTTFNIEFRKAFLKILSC
T1 sequence (P19020 whole entry): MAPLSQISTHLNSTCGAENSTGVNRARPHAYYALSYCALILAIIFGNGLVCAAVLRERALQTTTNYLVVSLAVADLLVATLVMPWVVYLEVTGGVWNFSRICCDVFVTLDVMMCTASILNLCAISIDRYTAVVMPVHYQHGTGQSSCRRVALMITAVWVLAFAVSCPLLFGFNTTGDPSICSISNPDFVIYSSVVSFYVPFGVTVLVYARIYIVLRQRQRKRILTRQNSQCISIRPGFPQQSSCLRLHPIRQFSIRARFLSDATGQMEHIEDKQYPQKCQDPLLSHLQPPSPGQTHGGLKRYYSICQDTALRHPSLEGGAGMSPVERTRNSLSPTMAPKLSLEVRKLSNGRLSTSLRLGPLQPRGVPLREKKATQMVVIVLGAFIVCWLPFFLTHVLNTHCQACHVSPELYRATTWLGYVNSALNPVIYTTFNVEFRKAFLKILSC
Sequence of M1 (P11229 whole entry): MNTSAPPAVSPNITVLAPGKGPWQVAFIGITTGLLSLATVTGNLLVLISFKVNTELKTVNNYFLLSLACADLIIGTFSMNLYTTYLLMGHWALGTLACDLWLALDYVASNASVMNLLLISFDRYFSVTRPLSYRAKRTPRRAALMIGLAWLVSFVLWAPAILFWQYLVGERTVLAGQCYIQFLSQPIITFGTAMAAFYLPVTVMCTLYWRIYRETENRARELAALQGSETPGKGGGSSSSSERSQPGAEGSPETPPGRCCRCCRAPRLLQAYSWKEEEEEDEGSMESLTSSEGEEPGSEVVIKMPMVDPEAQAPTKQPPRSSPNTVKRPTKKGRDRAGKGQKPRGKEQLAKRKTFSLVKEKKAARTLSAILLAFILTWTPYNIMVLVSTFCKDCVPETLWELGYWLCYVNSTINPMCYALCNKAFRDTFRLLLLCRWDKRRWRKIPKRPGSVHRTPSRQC
Sequence of DAT (Q01959 whole entry, species assumed): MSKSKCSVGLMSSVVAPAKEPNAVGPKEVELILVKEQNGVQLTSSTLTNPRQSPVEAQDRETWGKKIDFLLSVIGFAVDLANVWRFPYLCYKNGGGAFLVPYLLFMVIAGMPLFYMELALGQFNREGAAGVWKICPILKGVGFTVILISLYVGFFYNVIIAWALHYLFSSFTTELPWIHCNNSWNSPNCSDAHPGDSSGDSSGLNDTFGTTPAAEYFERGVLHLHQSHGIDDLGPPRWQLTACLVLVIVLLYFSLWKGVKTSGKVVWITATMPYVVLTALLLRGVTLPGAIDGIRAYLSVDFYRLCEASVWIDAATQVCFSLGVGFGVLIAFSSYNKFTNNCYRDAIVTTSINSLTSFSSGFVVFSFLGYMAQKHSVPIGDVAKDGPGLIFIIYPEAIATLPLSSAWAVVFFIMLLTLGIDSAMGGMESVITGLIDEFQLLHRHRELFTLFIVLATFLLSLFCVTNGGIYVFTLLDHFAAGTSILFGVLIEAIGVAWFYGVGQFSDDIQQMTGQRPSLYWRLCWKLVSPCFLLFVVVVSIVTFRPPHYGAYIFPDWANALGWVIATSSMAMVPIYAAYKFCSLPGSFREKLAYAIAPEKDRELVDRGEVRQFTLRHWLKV
Sequence of Beta1 (P08588 whole entry): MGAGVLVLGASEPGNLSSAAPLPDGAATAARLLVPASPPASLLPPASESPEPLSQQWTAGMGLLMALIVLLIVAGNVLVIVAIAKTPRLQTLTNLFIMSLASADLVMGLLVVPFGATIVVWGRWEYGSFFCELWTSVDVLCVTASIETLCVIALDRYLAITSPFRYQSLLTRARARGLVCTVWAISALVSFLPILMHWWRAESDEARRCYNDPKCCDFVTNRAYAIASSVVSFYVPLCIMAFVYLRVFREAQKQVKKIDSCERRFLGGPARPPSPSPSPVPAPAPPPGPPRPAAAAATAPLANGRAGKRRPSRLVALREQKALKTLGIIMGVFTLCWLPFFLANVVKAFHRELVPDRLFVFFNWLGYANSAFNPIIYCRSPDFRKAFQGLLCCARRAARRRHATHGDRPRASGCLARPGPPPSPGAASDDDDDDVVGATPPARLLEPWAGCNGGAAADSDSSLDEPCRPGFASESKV
Sequence of Sigma 1 (Q99720 whole entry): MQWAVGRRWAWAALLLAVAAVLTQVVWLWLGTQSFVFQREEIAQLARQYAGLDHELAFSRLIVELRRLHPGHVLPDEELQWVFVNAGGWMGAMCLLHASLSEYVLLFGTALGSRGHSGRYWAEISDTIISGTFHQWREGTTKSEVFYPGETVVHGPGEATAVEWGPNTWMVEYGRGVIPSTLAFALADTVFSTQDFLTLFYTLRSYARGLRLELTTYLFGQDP

SMILES: CN1C(=O)c2ccccc2[S@+]([O-])c2ccc(C(=O)NCCc3cccs3)cc21 [Compound 55, 10-Methyl-11-oxo-N-(2-(thiophen-2-yl)ethyl)-10,11-dihydrodibenzo[b,f][1,4]thiazepine-8-carboxamide 5-(S)-oxide]
- Inhibition (%) 5-HT7 (5-HT7): 53.3%
- Inhibition (%) Sigma 2 (Sigma 2): −16.5%
- Inhibition (%) Sigma 1 (Sigma 1): 17.5%
- Inhibition (%) M1 (M1): −0.6%
- Inhibition (%) 5-HT5A (5-HT5A): 9.5%
- Inhibition (%) BZP Rat Brain Site (BZP Rat Brain Site): 0.5%
- Effect on pramipexole-induced yawning (D3 receptor): no effect on pramipexole-induced yawning
- Inhibition (%) 5-HT1A (5-HT1A): 8.2%
- Inhibition (%) M3 (M3): 5.2%
- Inhibition (%) Alpha2B (Alpha2B): 31.2%
- Inhibition (%) Alpha1D (Alpha1D): −22.6%
- Inhibition (%) H3 (H3): −23.6%
- Inhibition (%) 5-HT1E (5-HT1E): 9.9%
- Inhibition (%) Alpha2C (Alpha2C): 20.9%
- Inhibition (%) DAT (DAT): −5.3%
- Ki [1]: 2900 nM
- AC50 (D2 GPCR receptor (DAR); dose response curve, read-out: D2 β-arrestin assay AC50): 725 nM
- D3/D2 beta-arrestin IC50ratio (D2 GPCR receptor (DAR); ratio of D3 (Example 4) to D2 (Example 2) beta arrestin assay): 17.8
- Inhibition (%) Beta1 (Beta1): 12.6%
- Block of sumanirole-induced hypothermia response (D2 receptor; 10 mg/kg): completely blocked
- Block of sumanirole-induced hypothermia response (D2 receptor; 3.2 and 10 mg/kg): significantly and dose-dependently block the sumanirole-induced hypothermia response
- Ki (D4): 8480 nM
